Laboratory results from article PMC5075098, “Preclinical Evaluation of the Stability, Safety, and Efficacy of CD101, a Novel Echinocandin” (Antimicrobial Agents and Chemotherapy, 2016).
Read-outs that look alike come from different tables or passages of the source. Starred links: 1 amine or outer side, 2 acyl side, 3 side chain; linkers in the order of their positions; H or OH if unused. Positions of bridges follow the written chain, without caps; N, C: chain ends. Non-standard residues stand in square brackets, D forms with d. Residues, ends and D or L forms follow the SMILES beside them. *: point of attachment. Orn(4R-OH,5R-OCH2CH2NMe3+) = C[N+](C)(C)CCO[C@@H](N[*:3])[C@H](O)C[C@H](N[*:1])C(=O)[*:2]; pTerphenylCO(4''-OnC5H11) = CCCCCOc1ccc(-c2ccc(-c3ccc(C(=O)*)cc3)cc2)cc1; hTyr(3S-OH,4S-OH) = N[C@H](C(=O)O)[C@H](O)[C@@H](O)c1ccc(O)cc1; Pro(3S-OH,4S-Me) = C[C@H]1CN[C@H](C(=O)O)[C@H]1O; Hyp = O=C(O)[C@@H]1C[C@@H](O)CN1

Experiments:
[1] = Metabolic stability in liver microsomes; conditions: for t1/2, NADPH free / half-life in liver microsomes: 1 μM; for t1/2, NADPH free: up to 2 h at 37°C, LC-MS/MS, first-order decay fit; for half-life in liver microsomes: NADPH state not specified, 37°C; for half-life: liver microsomes
Protocol: Metabolic stability was determined as described in reference. […] Following incubation, samples were quenched with ice-cold methanol or acetonitrile (ACN), containing an appropriate internal standard and centrifuged to remove precipitated protein, and the supernatants were analyzed to quantitate the remaining parent. […] Data were converted to the percentage remaining by dividing by the time zero concentration value. Data were fit to a first-order decay model to determine half-life. Intrinsic clearance was calculated from the half-life and the protein concentrations.

[2] = Plasma protein binding, rapid equilibrium dialysis; format: in vitro ADME, chimpanzee; conditions: pH 7.4, read-out: protein bound (converted)
Protocol: Rapid equilibrium dialysis (RED) ([16]) was used to determine cross-species protein binding of CD101 in CD-1 mouse, Sprague-Dawley rat, cynomolgus monkey, chimpanzee, and human plasma. […] Dialysis buffer (350 μl of phosphate-buffered saline [PBS], pH 7.4, with 100 mM sodium phosphate) was loaded into the buffer (left) channel of the RED device. The device was agitated gently at 37°C for 4 h. Samples were placed into a new 96-well plate for matrix matching (25 μl of plasma added to the dialysis buffer aliquots or 25 μl of dialysis buffer to the plasma aliquots). […] Following centrifugation, 200 μl of the supernatant was transferred to a clean 96-well plate and evaporated to dryness at 37°C under nitrogen. Samples were reconstituted in 100 μl of 1:1 acetonitrile-water prior to analysis by LC-MS/MS. The percentage bound was calculated as the difference between 100% and the percentage free (the ratio of the concentration in supernatant to the concentration in plasma).

[3] = Inhibition of recombinant CYP450 enzymes; format: in vitro ADME; conditions: recombinant CYP450 enzymes 1A2, 2B6, 2C8, 2C9, 2C19, 2D6, 3A4
[4] = rat
C. albicans R303 [5] = conditions: CLSI broth microdilution, read after 24 h at 35°C, prominent growth inhibition (∼50%)
Protocol: Enumeration of MIC and MEC assay inoculum viable counts was performed by plating aliquots of the starting assay inoculum on Sabouraud dextrose agar.

CYP2C8 = biological target: T1, CYP2C8 (Homo sapiens, UniProt P10632); assay: CYP450 inhibition in human liver microsomes
T1 sequence (P10632 1-490): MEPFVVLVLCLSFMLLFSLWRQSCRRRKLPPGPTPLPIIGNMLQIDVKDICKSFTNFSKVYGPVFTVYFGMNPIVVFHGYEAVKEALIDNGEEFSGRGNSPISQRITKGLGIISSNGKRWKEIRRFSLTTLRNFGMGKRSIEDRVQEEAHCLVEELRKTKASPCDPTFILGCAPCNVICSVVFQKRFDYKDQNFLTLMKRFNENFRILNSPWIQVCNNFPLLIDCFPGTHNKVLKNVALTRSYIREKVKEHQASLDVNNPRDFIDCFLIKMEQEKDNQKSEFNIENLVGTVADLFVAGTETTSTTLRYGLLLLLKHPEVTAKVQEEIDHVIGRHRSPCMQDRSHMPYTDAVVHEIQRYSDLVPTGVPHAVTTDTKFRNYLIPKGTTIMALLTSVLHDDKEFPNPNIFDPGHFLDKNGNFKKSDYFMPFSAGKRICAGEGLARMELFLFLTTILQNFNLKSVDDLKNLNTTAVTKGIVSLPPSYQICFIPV
Protocol: (§1) The final DMSO content in the reaction mixture was equal in all solutions used within an assay and was less than 0.2%. […] After incubation for 5 min at 37°C, the reactions were terminated by addition of methanol-containing internal standard (propranolol) for analytical quantification. The quenched samples were incubated at 4°C for 10 min and centrifuged at 4°C for 10 min.

[6] = CYP450 inhibition in human liver microsomes; conditions: pH 7.4, IC50, human liver microsomes, 0.03 to 30 μM, 5 min at 37°C, pH 7.4, LC-MS/MS, duplicate
Protocol: as §1

C. albicans R303 [7] = assay: Neutropenic mouse model of C. albicans infection, kidney colony counts; conditions: for log reduction in CFU per gram relative to vehicle: 24, 48, 72 h
Protocol: Immunosuppression was induced by two intraperitoneal (i.p.) injections of cyclophosphamide at 150 mg/kg 4 days before and 100 mg/kg 1 day before inoculation. […] The animals in the fluconazole group were sacrificed 48 h after infection.

SMILES: CCCCCOc1ccc(-c2ccc(-c3ccc(C(=O)N[C@H]4C[C@@H](O)[C@@H](OCC[N+](C)(C)C)NC(=O)[C@@H]5[C@@H](O)[C@@H](C)CN5C(=O)[C@H]([C@@H](C)O)NC(=O)[C@H]([C@H](O)[C@@H](O)c5ccc(O)cc5)NC(=O)[C@@H]5C[C@@H](O)CN5C(=O)[C@H]([C@@H](C)O)NC4=O)cc3)cc2)cc1 [CD101] ({pTerphenylCO(4''-OnC5H11)}-[Orn(4R-OH,5R-OCH2CH2NMe3+)]T[Hyp][hTyr(3S-OH,4S-OH)]T[Pro(3S-OH,4S-Me)]; lactam 1-C)
- t1/2, NADPH free ([1]; human liver microsomes without NADPH): >4 h
- half-life in liver microsomes ([1]; human microsomes): ≥ 4 h
- half-life ([1]; human): > 4 h
- t1/2, NADPH free ([1]; monkey liver microsomes without NADPH): >4 h
- half-life in liver microsomes ([1]; monkey microsomes): ≥ 4 h
- half-life ([1]; monkey): > 4 h
- microsomal CLint ([1]; monkey, microsomes): 2.1 µL/min/mg
- fraction unbound [2]: 0.012
- IC50 [3]: > 10 µM
- half-life ([4]; liver microsomes): > 4 h
- half-life ([4]; microsomes): 3.99 h
- microsomal CLint ([4]; microsomes): 9.6 µL/min/mg
- MIC (C. albicans R303 [5]): 0.12 µg/mL
- IC50 (CYP2C8): 25.7 µM
- IC50 ([6]; midazolam substrate (2.5 μM)): 29 µM
- IC50 ([6]; testosterone substrate (50 μM)): > 30 µM
- log reduction in CFU per gram relative to vehicle (C. albicans R303 [7]; 0.2 mg/kg single i.v. dose): less than 1 log
- log reduction in CFU per gram relative to vehicle (C. albicans R303 [7]; 0.4 mg/kg single i.v. dose): up to 1.7 log
- log reduction in CFU per gram relative to vehicle (C. albicans R303 [7]; 0.6 mg/kg single i.v. dose): up to 2.9 log
- log reduction in CFU per gram relative to vehicle (C. albicans R303 [7]; 0.8 mg/kg single i.v. dose): up to 4.7 log
- antimicrobial effect (≥99%, 2-log reduction in CFU per gram) (C. albicans R303 [7]; CD101 0.6 and 0.8 mg/kg i.v., at 24, 48, and 72 h): significant
